In this assay the target is T1, Serotonin 5-HT1F receptor (Homo sapiens, UniProt P30939).
T1 sequence (P30939 1-366): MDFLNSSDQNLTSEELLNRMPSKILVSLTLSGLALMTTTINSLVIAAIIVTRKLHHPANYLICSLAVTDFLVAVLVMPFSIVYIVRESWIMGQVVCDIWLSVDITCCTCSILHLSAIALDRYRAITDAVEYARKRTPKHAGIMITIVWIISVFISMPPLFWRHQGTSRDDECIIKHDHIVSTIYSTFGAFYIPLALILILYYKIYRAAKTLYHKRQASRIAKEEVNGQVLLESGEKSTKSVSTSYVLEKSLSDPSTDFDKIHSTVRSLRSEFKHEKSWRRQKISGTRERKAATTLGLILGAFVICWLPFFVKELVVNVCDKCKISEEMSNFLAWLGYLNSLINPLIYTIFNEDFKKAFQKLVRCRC
The assay can be described thus: GTPγS Scintillation Proximity Assay, agonist and antagonist mode. The assay is classed as biochemical. The procedure: Antagonist and agonist activities were determined using a GTPγS Scintillation Proximity Assay. The assay was prepared as follows: Membrane extracts were prepared from recombinant human Dopamine D2L, D3; Serotonin 5-HT1A, 5-HT1B, 5-HT1D and 5-HT1F receptors.
Samples were tested by proprietary biological assays by Ogeda S. A., Euroscreen FAST Business Unit, Rue Adrienne Bolland, 47 B-6041 Gosselies, Belgium. Each protein assay was prepared using the following conditions.
5-HT1F • Assay buffer: 20 mM HEPES pH 7.4; 100 mM NaCl, 10 μg/ml saponin, 1 mM MgCl2; • Membranes: recombinant 5-HT1F membrane extracts thawed on ice and diluted in assay buffer to give 0.5 mg/ml (5 μg/well) and kept on ice; • GDP: diluted in assay buffer to give a 3 μM final assay concentration; • Beads: PVT-WGA (Perkin Elmer, RPNQ001), diluted in assay buffer at 50 mg/ml (0.5 mg/well); and • GTPγ^35S: (PerkinElmer NEG030X), diluted in assay buffer to give 0.1 nM.
Membranes were mixed with GDP (volume:volume 1:1) and incubated for at least 15 min on ice. […]
The plates were covered with a top seal, mixed on an orbital shaker for 2 min, and then incubated for 1 hour at room temperature. Then the plates were centrifuged for 10 min at 2000 rpm, incubated at room temperature 1 hour and counted for 1 min/well with a PerkinElmer TopCount reader. […]

Read-outs that look alike come from different tables or passages of the source.

With `CC[C@@H](CO)NC(=O)[C@@H]1C[C@@H]2c3cccc4c3c(c(C3CC3)n4C)C[C@H]2N(C)C1` [Compound D13H, (6aR,9R,10aR)-5-cyclopropyl-N—((S)-1-hydroxybutan-2-yl)-4,7-dimethyl-4,6,6a,7,8,9,10,10a-octahydroindolo[4,3-fg]quinoline-9-carboxamide], the concentration for a half-maximal effect (EC50) (in general, the concentration giving half of the maximal effect) (agonist mode, bound stated, read-out: EC50 value for the Serotonin 5-HT1F receptor) is under 1000 nM and the EC50 (membrane extracts, read-out: Agonist Activity (EC50), 5-HT1F) stood at 260 nM.

Values taken from US10815235B2, “Polycyclic compounds and uses thereof” (priority 2017, dated 2020).
